What follows are molecules tested on LXRα and/or LXRβ (assay: LXR/LXRE co-transfection assay (luciferase reporter, CV-1 cells)). Details: IC50 or EC50 for LXR (LXRα and/or LXRβ, not distinguished), tested as described in Example 109, CV-1 cells.
Format: cell-based, human
Summary of the method: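 Transient co-transfection of CV-1 cells with full-length human LXRα or LXRβ plus RXRα expression plasmids and an LXREx1-Tk-luciferase reporter; compounds (10 μM screen, ≤1% DMSO) incubated 20 h at 37 °C. Luminescence read after lysis; EC50/IC50 from 8-point half-log curves, efficacy relative to a high control or DMSO.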

| EC50 [µM] | Structure (SMILES) |
| --- | --- |
| < 1 | CC(C)(O)c1ccccc1-n1nc(C(F)(F)F)cc1-c1ccc(-c2cccc(S(C)(=O)=O)c2)s1 [Example 1229] |
| < 1 | CC(C)S(=O)(=O)c1cccc(-c2ccc(-c3cc(C(F)(F)F)nn3-c3ccccc3Cl)cc2)c1 [Example 1167, 1-(2-chlorophenyl)-5-{3′-[(1-methylethyl)sulfonyl]biphenyl-4-yl}-3-(trifluoromethyl)-1H-pyrazole] |
| < 1 | CC(O)(c1cc(-c2ccc(-c3cccc(S(C)(=O)=O)c3)s2)n(-c2ccccc2Cl)n1)C(F)(F)F (stereo not drawn) [Example 1181, 2-[1-(2-chlorophenyl)-5-{5-[3-(methylsulfonyl)phenyl]-2-thienyl}-1H-pyrazol-3-yl]-1,1,1-trifluoropropan-2-ol] |
| 1 to 10 | CS(=O)(=O)c1cccc(-c2ccc(-c3cc(Cc4nnn[nH]4)nn3-c3ccccc3Cl)s2)c1 [Example 1136, 5-{[1-(2-chlorophenyl)-5-{5-[3-(methylsulfonyl)phenyl]-2-thienyl}-1H-pyrazol-3-yl]methyl}-1H-tetrazole] |
| < 1 | CC(C)(C(=O)O)c1cccc(-c2ccc(-c3cc(C(F)(F)F)nn3Cc3ccc(Cl)s3)s2)c1 [Example 1166, 2-[3-(5-{1-[(5-chloro-2-thienyl)methyl]-3-(trifluoromethyl)-1H-pyrazol-5-yl}-2-thienyl)phenyl]-2-methylpropanoic acid] |
| 1 to 10 | CC(C)(O)c1cc(-c2ccc(-c3cccc(S(C)(=O)=O)c3)s2)n(-c2ccncc2)n1 [Example 1343, 2-(5-{5-[3-(methylsulfonyl)phenyl]-2-thienyl}-1-pyridin-4-yl-1H-pyrazol-3-yl)propan-2-ol] |
| 1 to 10 | Cc1cc(-n2nc(C(C)(C)O)c(Cl)c2-c2c(Cl)cccc2Cl)ccc1-c1cccc(S(C)(=O)=O)c1 [Example 1419, 2-(4-chloro-5-(2,6-dichlorophenyl)-1-(2-methyl-3′-(methylsulfonyl)biphenyl-4-yl)-1H-pyrazol-3-yl)propan-2-ol] |
| < 1 | CS(=O)(=O)c1cccc(-c2ccc(-c3cc(C(O)C(F)(F)F)nn3-c3ccccc3Cl)s2)c1 (stereo not drawn) [Example 1209, 1-[1-(2-chlorophenyl)-5-{5-[3-(methylsulfonyl)phenyl]-2-thienyl}-1H-pyrazol-3-yl]-2,2,2-trifluoroethanol] |
| < 1 | CS(=O)(=O)c1cccc(-c2ccc(-c3cc(C4(O)CCCC4)nn3-c3ccccc3Cl)s2)c1 [Example 1228, 1-[1-(2-chlorophenyl)-5-{5-[3-(methylsulfonyl)phenyl]-2-thienyl}-1H-pyrazol-3-yl]cyclopentanol] |
| < 1 | CCc1ccccc1-n1nc(C(C)(C)O)cc1-c1ccc(-c2cccc(S(C)(=O)=O)c2)s1 [Example 1329, 2-[1-(2-ethylphenyl)-5-{5-[3-(methylsulfonyl)phenyl]-2-thienyl}-1H-pyrazol-3-yl]propan-2-ol] |
| < 1 | CC(=O)c1cc(-c2ccc(-c3cccc(S(C)(=O)=O)c3)s2)n(-c2cc(Cl)ccc2Oc2ccccc2)n1 [Example 1213, 1-(1-[5-chloro-2-(phenyloxy)phenyl]-5-{5-[3-(methylsulfonyl)phenyl]-2-thienyl}-1H-pyrazol-3-yl)ethanone] |
| 1 to 10 | COC(=O)Cc1ccc(-c2ccc(-c3cc(C(F)(F)F)nn3-c3ncccc3C(F)(F)F)s2)c(C)c1 [Example 1153, methyl [3-methyl-4-(5-{3-(trifluoromethyl)-1-[3-(trifluoromethyl)pyridin-2-yl]-1H-pyrazol-5-yl}-2-thienyl)phenyl]acetate] |
| < 1 | CC(C)(O)c1nn(-c2ccc(-c3cccc(S(C)(=O)=O)c3)cc2Cl)c(-c2cccc(F)c2F)c1Cl [Example 1427, 2-(4-chloro-1-(3-chloro-3′-(methylsulfonyl)biphenyl-4-yl)-5-(2,3-difluorophenyl)-1H-pyrazol-3-yl)propan-2-ol] |
| < 1 | CC(C)S(=O)(=O)c1cccc(-c2ccc(-c3cc(C(C)(C)O)nn3-c3ccccc3Cl)s2)c1 [Example 1185, 2-[1-(2-chlorophenyl)-5-(5-{3-[(1-methylethyl)sulfonyl]phenyl}-2-thienyl)-1H-pyrazol-3-yl]propan-2-ol] |
| < 1 | CC(C)(O)c1nn(-c2ccccc2Cl)c(-c2ccc(-c3cccc(S(C)(=O)=O)c3)s2)c1Cl [Example 1294, 2-[4-chloro-1-(2-chlorophenyl)-5-{5-[3-(methylsulfonyl)phenyl]-2-thienyl}-1H-pyrazol-3-yl]propan-2-ol] |
| 1 to 10 | CC(C)(O)c1cc(-c2ccc(-c3ccc(S(C)(=O)=O)cc3)s2)n(-c2ccccc2Cl)n1 [Example 804, 2-[1-(2-chlorophenyl)-5-{5-[4-(methylsulfonyl)phenyl]-2-thienyl}-1H-pyrazol-3-yl]propan-2-ol] |
| < 1 | CC(C)(O)c1cc(-c2ccc(-c3cccc(S(C)(=O)=O)c3)s2)n(-c2cc(Cl)ccc2F)n1 [Example 1336, 2-[1-(5-chloro-2-fluorophenyl)-5-{5-[3-(methylsulfonyl)phenyl]-2-thienyl}-1H-pyrazol-3-yl]propan-2-ol] |

| EC50 [µM] | Structure (SMILES) |
| --- | --- |
| 1 to 10 | COC(=O)c1cccc(-c2ccc(-c3cc(C(=O)NCC(F)(F)F)nn3-c3ccccc3Cl)s2)c1 [Example 1275] |
| 1 to 10 | CN(Cc1cccnc1)C(=O)c1cc(-c2ccc(-c3cccc(S(C)(=O)=O)c3)s2)n(-c2ccccc2Cl)n1 [Example 1271, 1-(2-chlorophenyl)-N-methyl-5-{5-[3-(methylsulfonyl)phenyl]-2-thienyl}-N-(pyridin-3-ylmethyl)-1H-pyrazole-3-carboxamide] |
| 1 to 10 | CS(=O)(=O)c1cccc(-c2ccc(-c3cc(CNc4cc[nH]c(=S)n4)nn3-c3ccccc3Cl)s2)c1 [Example 545, 4-({[1-(2-chlorophenyl)-5-{5-[3-(methylsulfonyl)phenyl]-2-thienyl}-1H-pyrazol-3-yl]methyl}amino)pyrimidine-2(1H)-thione] |
| 1 to 10 | Cc1n[nH]c(C)c1CN(C)Cc1cc(-c2ccc(-c3cccc(S(C)(=O)=O)c3)s2)n(-c2ccccc2Cl)n1 [Example 568, 1-[1-(2-chlorophenyl)-5-{5-[3-(methylsulfonyl)phenyl]-2-thienyl}-1H-pyrazol-3-yl]-N-[(3,5-dimethyl-1H-pyrazol-4-yl)methyl}-N-methylmethanamine] |
| < 1 | CS(=O)(=O)c1cccc(-c2ccc(-c3cc(C(=O)NCC(F)(F)F)nn3-c3ccccc3C(F)(F)F)s2)c1 [Example 1195, 5-{5-[3-(methylsulfonyl)phenyl]-2-thienyl}-N-(2,2,2-trifluoroethyl)-1-[2-(trifluoromethyl)phenyl]-1H-pyrazole-3-carboxamide] |
| 1 to 10 | CC(C)(O)c1cc(-c2ccc(-c3cccc(S(C)(=O)=O)c3)s2)n(-c2cc(Cl)cc(Cl)c2)n1 [Example 1323, 2-[1-(3,5-dichlorophenyl)-5-{5-[3-(methylsulfonyl)phenyl]-2-thienyl}-1H-pyrazol-3-yl]propan-2-ol] |
| < 1 | CC(C)(O)c1cc(-c2ccc(-c3cccc(S(C)(=O)=O)c3)s2)n(-c2ccccc2Br)n1 [Example 1320, 2-[1-(2-bromophenyl)-5-{5-[3-(methylsulfonyl)phenyl]-2-thienyl}-1H-pyrazol-3-yl]propan-2-ol] |
| 1 to 10 | CC(C)(O)c1cc(-c2ccc(-c3cccc(S(C)(=O)=O)c3)s2)n(-c2cc(Cl)ccc2Cl)n1 [Example 1279, 2-[1-(2,5-dichlorophenyl)-5-{5-[3-(methylsulfonyl)phenyl]-2-thienyl}-1H-pyrazol-3-yl]propan-2-ol] |
| 1 to 10 | CC(C)(O)c1cccc(-c2ccc(-c3cc(C(=O)NCC(F)(F)F)nn3-c3ccccc3Cl)s2)c1 [Example 1276, 1-(2-chlorophenyl)-5-{5-[3-(1-hydroxy-1-methylethyl)phenyl]-2-thienyl}-N-(2,2,2-trifluoroethyl)-1H-pyrazole-3-carboxamide] |
| 1 to 10 | CC(C)(O)c1nn(-c2cnccc2C(F)(F)F)c(-c2ccc(-c3cccc(S(C)(=O)=O)c3)cc2)c1Cl [Example 109, 2-(4-chloro-5-(3′-(methylsulfonyl)biphenyl-4-yl)-1-(4-(trifluoromethyl)pyridin-3-yl)-1H-pyrazol-3-yl)propan-2-ol] |
| < 1 | Cc1cc(-c2cccc(S(C)(=O)=O)c2)ccc1-c1c(Cl)c(C(C)(C)O)nn1-c1c(Cl)cccc1Cl [Example 1386, 2-(4-chloro-1-(2,6-dichlorophenyl)-5-(3-methyl-3′-(methylsulfonyl)biphenyl-4-yl)-1H-pyrazol-3-yl)propan-2-ol] |
| < 1 | CC(C)c1ccccc1-n1nc(C(C)(C)O)cc1-c1ccc(-c2cccc(S(C)(=O)=O)c2)s1 [Example 1345, 2-(1-[2-(1-methylethyl)phenyl]-5-{5-[3-(methylsulfonyl)phenyl]-2-thienyl}-1H-pyrazol-3-yl)propan-2-ol] |
| 1 to 10 | Cc1cc(CC(=O)O)ccc1-c1ccc(-c2cc(C(F)(F)F)nn2-c2ncccc2C(F)(F)F)s1 [Example 1155, [3-methyl-4-(5-{3-(trifluoromethyl)-1-[3-(trifluoromethyl)pyridin-2-yl]-1H-pyrazol-5-yl}-2-thienyl)phenyl]acetic acid] |
| 1 to 10 | CC(C)(O)c1cc(-c2ccc(-c3cccc(S(C)(=O)=O)c3)s2)n(-c2cc(F)ccc2F)n1 [Example 1322, 2-[1-(2,5-difluorophenyl)-5-{5-[3-(methylsulfonyl)phenyl]-2-thienyl}-1H-pyrazol-3-yl]propan-2-ol] |
| 1 to 10 | CC(C)(O)c1cc(-c2ccc(-c3cccc(O)c3)cc2)n(-c2ccccc2Cl)n1 [Example 1285, 4′-[1-(2-chlorophenyl)-3-(1-hydroxy-1-methylethyl)-1H-pyrazol-5-yl]biphenyl-3-ol] |
| < 1 | Cc1cccc(C)c1-n1nc(C(C)(C)O)cc1-c1ccc(-c2cccc(S(C)(=O)=O)c2)s1 [Example 1352, 2-[1-(2,6-dimethylphenyl)-5-{5-[3-(methylsulfonyl)phenyl]-2-thienyl}-1H-pyrazol-3-yl]propan-2-ol] |
